{"source": "paper PMC7381750", "about": "“JP1 suppresses proliferation and metastasis of melanoma through MEK1/2 mediated NEDD4L-SP1-Integrin αvβ3 signaling” (Theranostics, 2020)", "key": {"[1]": {"system": "B16F10 cell", "assay": "B16F10 melanoma-bearing model, JP1 and DTIC alone or in combination", "format": "in vivo, mouse", "conditions": "50 mg/kg JP1 combined with 40 mg/kg DTIC", "method": "(A-C) (A) Schematic representation of the B16F10 and MEWO cells melanoma-bearing model for JP1 treatment (n = 6 per group). JP1 and its control agents were administered by intraperitoneal injection. […] (D-G) (D) Schematic representation of the B16F10 cell melanoma passive metastasis model for JP1 treatment. JP1 and its control agents were administered by intraperitoneal injection. […] (F) The representative melanoma lung metastatic images by H&E-staining (scale bars, 1000 μm). […] (J-L) (J) Schematic representation of the B16F10 cell melanoma-bearing model (n= 6 per group). Both JP1 and DTIC alone or in combination treatments and relative control was administered by intraperitoneal injection in mice.\nThe chemotherapeutic agent dacarbazine (DTIC) is currently as the first line drug used to treat metastatic melanoma in clinic, and was reported to cause painful symptoms and acquired resistance, compromising patient quality of life. To determine the possibility as a combination therapy between DTIC and JP1, we completed a joint treatment of DTIC and JP1 for melanoma tumor-bearing model (Figure 2J)."}, "[2]": {"assay": "Cynomolgus monkey toxicity test: urinalysis", "format": "in vivo", "method": "(§1) The test was completed by Suzhou Xishan Zhongke Drugs Research and Development Co., Ltd. (Xishan, Suzhou, China). The study proposal was approved by the Institute Animal Care and Use Committee (IACUC, ID19012912). Cynomolgus monkeys (3-4 years old) were randomly divided into three groups (n = 4 per group, half male and female); and the monkeys were treated with solvent control (Mannitol in saline, 75 mg/kg/d), JP1 (45 mg/kg/day) and JP1 (150 mg/kg/day) for 14 days. The experiment was ended on 15th day and the animals were euthanasia. The relevant clinical parameters were determined on 7th and 13th day, respectively. The observed parameters were including clinical symptoms, weight, food intake, body temperature, ophthalmology, electrocardiogram, blood routine examination, blood biochemistry, blood coagulation, urinalysis, immunotoxicity.\n(§2) Supplementary database files: Cynomolgus monkey toxicity test […]\n(§3) The study was conducted by a contract service in Suzhou Xishan Zhongke Drugs Research and Development Co., Ltd. (Xishan, Suzhou, China). All the use of animals were approved by the Institute Animal Care and Use Commttee, IACUC. IACUC no. :\n(§4) ID19012912. The veterinarian will supervise the breeding and welfare of the animals. The company follows the Guide for the Care and Use of Laboratory Animals (8th ed., 2011).\n(§5) Cynomolgus monkeys (3-4 years old) were randomly divided into three groups (n = 4 per group, two males and two females for each group); and treated q.d./i.v. with Mannitol (75 mg/kg/d in saline), JP1 (45 mg/kg/d) and JP1 (150 mg/kg/d) for 14 days, respectively. JP1 was dissolved in saline (100 mg/2 ml) and administered intravenously at a rate of 3 ml/min.\n(§6) The JP1 was provided by Hybio Pharmaceutical Co., Ltd. (Shenzhen, China); the production of small packaging preparation (100 mg/vial in freeze-dried powder, purity > 98%; -20 °C for storage and transportation) was completed under strict GMP conditions and quality control procedures for biological preparations. No recovery period was set for this test; the experimental model was ended on 15th day. The relevant clinical indicators including symptoms, body weight, food intake, temperature, ophthalmology, electrocardiogram, blood routine examination, blood biochemistry, blood coagulation, urinalysis, immunotoxicity were determined on 7th and 13th, respectively. […]\n(§7) indicators in all animals, and the pathological observation of organs was not determined. […]\n(§8) relevant clinical indicators in two JP1 groups were no difference compared with those in […]\n(§9) Level (NOAEL) of JP1 was 150 mg/kg."}, "[3]": {"assay": "Cynomolgus monkey toxicity test: blood coagulation", "format": "in vivo", "method": "as §1, §2, §3, §4, §5, §6, §7, §8, §9"}, "[4]": {"assay": "Preliminary pharmacokinetic analysis in SD rats", "protocol": "The drug half-life (t1/2) is calculated by the formula t1/2 = 0.693/k, where k is the elimination rate constant (k = (Inc1-Inc2)/(t2-t1))."}, "[5]": {"conditions": "JP1 45 mg/kg/d i.v., D7, monkeys 1105,1106,2107,2108"}, "[6]": {"conditions": "JP1 45 mg/kg/d i.v., D7, monkeys 1105,1106,2107,2108, 45 mg/kg/day"}, "[7]": {"conditions": "JP1 45 mg/kg/d i.v., D13, monkeys 1105,1106,2107,2108"}, "[8]": {"conditions": "JP1 45 mg/kg/d i.v., D13, monkeys 1105,1106,2107,2108, 45 mg/kg/day"}, "[9]": {"conditions": "JP1 150 mg/kg/d i.v., D7, monkeys 1209,1210,2211,2212"}, "[10]": {"conditions": "JP1 150 mg/kg/d i.v., D7, monkeys 1209,1210,2211,2212, 150 mg/kg/day"}, "[11]": {"conditions": "JP1 150 mg/kg/d i.v., D13, monkeys 1209,1210,2211,2212"}, "[12]": {"conditions": "JP1 150 mg/kg/d i.v., D13, monkeys 1209,1210,2211,2212, 150 mg/kg/day"}, "[13]": {"conditions": "male, Sprague-Dawley, rat, blood, ip, 100 mg/kg"}}, "note": "Where “and” joins values, the source holds several entries; their conditions need not be identical. Equal values may be shown once. Entries after “also recorded” stand apart in the source; their conditions may differ. Non-standard residues stand in square brackets, D forms with d. Residues, ends and D or L forms follow the SMILES beside them. pS = N[C@@H](COP(=O)(O)O)C(=O)O", "data": [{"smiles": "CC(=O)N[C@@H](Cc1ccccc1)C(=O)N1CCC[C@H]1C(=O)NCC(=O)N[C@@H](COP(=O)(O)O)C(=O)N[C@@H](CC(=O)O)C(=O)N[C@@H](CCCNC(=N)N)C(=O)N[C@@H](Cc1ccccc1)C(=O)NCC(=O)NCC(=O)NCC(=O)NCC(=O)N[C@@H](CCCNC(=N)N)C(=O)NCC(=O)N[C@@H](CC(=O)O)C(N)=O", "note": "[JP1] (Ac-FPG[pS]DRFGGGGRGD-NH2)", "values": [{"measurement": "body weight curve", "setting": "[1]", "value": "stable"}, {"measurement": "liver injury", "setting": "[1]; compared to DTIC alone", "value": "without obvious liver injury"}, {"measurement": "GLU (urine)", "setting": "[2]; [5]", "value": "NORMAL"}, {"measurement": "URO (Urobilinogen)", "setting": "[2]; [5]", "value": "NORMAL"}, {"measurement": "COL (urine)", "setting": "[2]; [6]", "value": "COLORLESS; also recorded: YELLOW"}, {"measurement": "SG (Urine specific gravity)", "setting": "[2]; [6]", "value": "1.004 and 1.005 and 1.008 and 1.012"}, {"measurement": "pH (urine)", "setting": "[2]; [6]", "value": "8.0 and 8.5"}, {"measurement": "COL (urine)", "setting": "[2]; [7]", "value": "COLORLESS"}, {"measurement": "GLU (urine)", "setting": "[2]; [7]", "value": "NORMAL"}, {"measurement": "URO (Urobilinogen)", "setting": "[2]; [7]", "value": "NORMAL"}, {"measurement": "SG (Urine specific gravity)", "setting": "[2]; [8]", "value": "1.006 and 1.007 and 1.009"}, {"measurement": "pH (urine)", "setting": "[2]; [8]", "value": "7.5 and 8.0 and 8.5"}, {"measurement": "GLU (urine)", "setting": "[2]; [9]", "value": "NORMAL"}, {"measurement": "URO (Urobilinogen)", "setting": "[2]; [9]", "value": "NORMAL"}, {"measurement": "COL (urine)", "setting": "[2]; [10]", "value": "LIGHT YELLOW; also recorded: COLORLESS"}, {"measurement": "SG (Urine specific gravity)", "setting": "[2]; [10]", "value": "1.002 and 1.009 and 1.020 and 1.006"}, {"measurement": "pH (urine)", "setting": "[2]; [10]", "value": "7.5 and 8.5"}, {"measurement": "GLU (urine)", "setting": "[2]; [11]", "value": "NORMAL"}, {"measurement": "LEU (Urine leukocyte)", "setting": "[2]; [11]", "value": "NEG."}, {"measurement": "URO (Urobilinogen)", "setting": "[2]; [11]", "value": "NORMAL"}, {"measurement": "COL (urine)", "setting": "[2]; [12]", "value": "COLORLESS; also recorded: LIGHT YELLOW"}, {"measurement": "SG (Urine specific gravity)", "setting": "[2]; [12]", "value": "1.004 and 1.013 and 1.005 and 1.009"}, {"measurement": "pH (urine)", "setting": "[2]; [12]", "value": "8.0 and 8.5 and 7.5"}, {"measurement": "APTT", "setting": "[3]; [6]", "value": "23.2 s and 28.0 s and 25.5 s and 25.1 s"}, {"measurement": "FIB", "setting": "[3]; [6]", "value": "2.59 g/L and 2.84 g/L and 2.33 g/L and 2.34 g/L"}, {"measurement": "PT", "setting": "[3]; [6]", "value": "11.8 s and 11.0 s and 12.2 s and 11.9 s"}, {"measurement": "APTT", "setting": "[3]; [8]", "value": "25.3 s and 24.6 s and 24.2 s and 22.6 s"}, {"measurement": "FIB", "setting": "[3]; [8]", "value": "3.02 g/L and 2.81 g/L and 2.68 g/L and 2.51 g/L"}, {"measurement": "PT", "setting": "[3]; [8]", "value": "11.7 s and 12.2 s and 10.9 s"}, {"measurement": "APTT", "setting": "[3]; [10]", "value": "23.7 s and 25.2 s and 33.8 s and 27.7 s"}, {"measurement": "FIB", "setting": "[3]; [10]", "value": "2.71 g/L and 3.21 g/L and 2.66 g/L and 2.89 g/L"}, {"measurement": "PT", "setting": "[3]; [10]", "value": "11.8 s and 12.5 s and 11.7 s and 12.0 s"}, {"measurement": "APTT", "setting": "[3]; [12]", "value": "23.5 s and 24.9 s and 29.9 s and 27.8 s"}, {"measurement": "FIB", "setting": "[3]; [12]", "value": "2.90 g/L and 2.99 g/L and 2.97 g/L and 3.27 g/L"}, {"measurement": "PT", "setting": "[3]; [12]", "value": "11.9 s and 12.4 s and 11.8 s and 11.7 s"}, {"measurement": "elimination rate constant k", "setting": "[4]; SD rats, 100 mg/kg i.p., from 0.25 h and 1 h concentrations", "value": 0.526}, {"measurement": "level at 0.25 h", "setting": "[4]; [13]", "value": 20500, "unit": "ng/mL"}, {"measurement": "level at 1 h", "setting": "[4]; [13]", "value": 13800, "unit": "ng/mL"}]}]}
